Results published in ChEMBL document CHEMBL4321837, “Discovery of Potent and Orally Effective Dual Janus Kinase 2/FLT3 Inhibitors for the Treatment of Acute Myelogenous Leukemia and Myeloproliferative Neoplasms” (J Med Chem, 2019).

What was measured:
Homo sapiens [1] = species on record: Homo sapiens; test: Selectivity ratio of IC50 for inhibition of human JAK3 (781 to end residues) to inhibition of human JAK2 (808 to end residues)
MV4-11 = test: Antiproliferative activity against FLT3-ITD-positive human MV4-11 cells assessed as reduction in cell growth after 72 hrs by MTT assay; type: functional, cell-based; settings: MV4-11, 72 h
[2] = target: Receptor-type tyrosine-protein kinase FLT3 (Homo sapiens) (UniProt P36888); test: Inhibition of human FLT3 (564 to end residues) assessed as residual activity at 100 nM using EAIYAAPFAKKK as substrate after 40 mins in presence of [gamma33P]-ATP by scintillation counting based radiometric assay relative to control
[3] = Oral bioavailability in Sprague-Dawley rat at 5 mg/kg measured up to 24 hrs by LC/MS/MS analysis; type: ADME, organism-based; settings: in vivo
[4] = Terminal elimination half life in Sprague-Dawley rat at 5 mg/kg, po measured up to 24 hrs by LC/MS/MS analysis; type: ADME, organism-based; settings: in vivo; for half-life: Sprague-Dawley, read-out: beta t1/2 (converted)
[5] = AUC (0 to t) in Sprague-Dawley rat at 5 mg/kg, po measured up to 24 hrs by LC/MS/MS analysis; type: ADME, organism-based; parameters: dose 5 mg/kg, time < 24 hr, route oral; settings: in vivo; for AUC(0-t) at 24 h: Sprague-Dawley
[6] = target: T1, Tyrosine-protein kinase JAK3 (Homo sapiens, UniProt P52333); test: Inhibition of human JAK3 (781 to end residues) using GGEEEEYFELVKK as substrate after 40 mins in presence of [gamma33P]-ATP by scintillation counting based radiometric assay
T1 sequence (P52333 whole entry): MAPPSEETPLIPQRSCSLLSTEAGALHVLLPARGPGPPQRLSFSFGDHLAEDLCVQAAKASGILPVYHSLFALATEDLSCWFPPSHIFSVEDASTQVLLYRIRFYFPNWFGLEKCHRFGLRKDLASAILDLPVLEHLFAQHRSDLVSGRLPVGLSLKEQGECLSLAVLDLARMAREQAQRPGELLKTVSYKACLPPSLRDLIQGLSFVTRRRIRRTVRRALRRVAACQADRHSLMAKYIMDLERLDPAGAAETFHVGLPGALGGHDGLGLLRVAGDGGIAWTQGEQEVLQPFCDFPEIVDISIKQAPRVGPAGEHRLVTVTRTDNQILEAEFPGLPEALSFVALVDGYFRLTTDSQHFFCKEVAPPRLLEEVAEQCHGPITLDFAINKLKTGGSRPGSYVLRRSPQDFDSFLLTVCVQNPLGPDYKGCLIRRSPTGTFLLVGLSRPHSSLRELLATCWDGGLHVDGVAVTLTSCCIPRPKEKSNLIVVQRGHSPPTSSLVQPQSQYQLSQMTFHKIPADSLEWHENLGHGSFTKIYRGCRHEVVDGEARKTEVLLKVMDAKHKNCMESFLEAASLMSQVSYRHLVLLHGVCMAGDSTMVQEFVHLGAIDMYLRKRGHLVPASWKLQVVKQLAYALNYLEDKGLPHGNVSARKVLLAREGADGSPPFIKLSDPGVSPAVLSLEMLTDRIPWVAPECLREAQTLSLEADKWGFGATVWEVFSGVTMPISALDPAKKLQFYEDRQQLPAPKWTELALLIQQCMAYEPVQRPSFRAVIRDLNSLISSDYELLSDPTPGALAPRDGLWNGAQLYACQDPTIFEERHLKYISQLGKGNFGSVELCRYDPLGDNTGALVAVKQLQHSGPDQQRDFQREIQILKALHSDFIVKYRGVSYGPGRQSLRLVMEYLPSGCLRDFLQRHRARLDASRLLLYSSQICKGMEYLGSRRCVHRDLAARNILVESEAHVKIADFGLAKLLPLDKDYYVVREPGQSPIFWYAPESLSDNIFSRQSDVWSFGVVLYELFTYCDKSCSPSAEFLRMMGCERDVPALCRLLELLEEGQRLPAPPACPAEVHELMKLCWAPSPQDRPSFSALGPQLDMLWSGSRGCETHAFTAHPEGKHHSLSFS

[7] = Tmax in Sprague-Dawley rat at 5 mg/kg, po measured up to 24 hrs by LC/MS/MS analysis; type: ADME, organism-based; settings: in vivo
MOLM-13 = test: Antiproliferative activity against FLT3-ITD-positive human MOLM13 cells assessed as reduction in cell growth after 72 hrs by MTT assay; type: functional, cell-based; settings: MOLM-13, 72 h
[8] = target: T2, Tyrosine-protein kinase JAK2 (Homo sapiens, UniProt O60674); test: Inhibition of human JAK2 (808 to end residues) assessed as residual activity at 100 nM using KTFCGTPEYLAP as substrate after 40 mins in presence of [gamma33P]-ATP by scintillation counting based radiometric assay relative to control
T2 sequence (O60674 whole entry): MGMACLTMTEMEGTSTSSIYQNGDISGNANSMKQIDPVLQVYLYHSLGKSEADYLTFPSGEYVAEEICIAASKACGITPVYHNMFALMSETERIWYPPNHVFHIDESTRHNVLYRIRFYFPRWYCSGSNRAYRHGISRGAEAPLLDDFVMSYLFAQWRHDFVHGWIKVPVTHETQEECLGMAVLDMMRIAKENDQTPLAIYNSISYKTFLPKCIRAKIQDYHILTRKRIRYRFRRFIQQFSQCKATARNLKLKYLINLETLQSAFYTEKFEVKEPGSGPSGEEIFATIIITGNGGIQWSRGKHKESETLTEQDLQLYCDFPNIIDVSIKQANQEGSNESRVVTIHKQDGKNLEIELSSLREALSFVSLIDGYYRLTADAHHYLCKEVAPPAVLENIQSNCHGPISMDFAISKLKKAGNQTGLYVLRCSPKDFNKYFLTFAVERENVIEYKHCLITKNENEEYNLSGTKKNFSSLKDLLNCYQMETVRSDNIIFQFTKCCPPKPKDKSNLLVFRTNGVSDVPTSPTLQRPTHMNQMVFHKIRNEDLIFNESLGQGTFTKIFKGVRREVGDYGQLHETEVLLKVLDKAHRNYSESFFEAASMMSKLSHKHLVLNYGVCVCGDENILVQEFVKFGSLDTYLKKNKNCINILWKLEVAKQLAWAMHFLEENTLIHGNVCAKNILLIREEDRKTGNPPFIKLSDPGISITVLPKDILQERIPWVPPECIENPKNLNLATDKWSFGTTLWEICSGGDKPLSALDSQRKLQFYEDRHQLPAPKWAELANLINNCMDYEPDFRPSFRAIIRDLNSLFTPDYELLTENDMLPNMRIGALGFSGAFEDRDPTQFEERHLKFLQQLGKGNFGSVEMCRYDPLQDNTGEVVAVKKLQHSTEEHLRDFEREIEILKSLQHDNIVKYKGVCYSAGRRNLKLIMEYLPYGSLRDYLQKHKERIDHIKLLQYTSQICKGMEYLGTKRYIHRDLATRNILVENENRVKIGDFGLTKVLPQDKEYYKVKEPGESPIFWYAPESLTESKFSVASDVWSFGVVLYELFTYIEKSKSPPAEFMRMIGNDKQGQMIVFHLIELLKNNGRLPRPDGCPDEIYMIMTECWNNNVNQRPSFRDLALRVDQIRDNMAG

[9] = target: T2, Tyrosine-protein kinase JAK2; test: Inhibition of human JAK2 (808 to end residues) using KTFCGTPEYLAP as substrate after 40 mins in presence of [gamma33P]-ATP by scintillation counting based radiometric assay
Homo sapiens [10] = species on record: Homo sapiens; test: Selectivity ratio of IC50 for inhibition of human JAK1 (866 to end residues) to inhibition of human JAK2 (808 to end residues)
[11] = target: T3, Tyrosine-protein kinase JAK3 (Homo sapiens) (UniProt P52333); test: Inhibition of human JAK3 (781 to end residues) assessed as residual activity at 100 nM using GGEEEEYFELVKK as substrate after 40 mins in presence of [gamma33P]-ATP by scintillation counting based radiometric assay relative to control
T3 sequence (whole entry): T1 sequence (P52333 whole entry)

Cytochrome P450 3A4 = Cytochrome P450 3A4 (Homo sapiens, UniProt P08684); test: Inhibition of CYP3A4 (unknown origin); type: ADME
Sequence of Cytochrome P450 3A4 (P08684 whole entry): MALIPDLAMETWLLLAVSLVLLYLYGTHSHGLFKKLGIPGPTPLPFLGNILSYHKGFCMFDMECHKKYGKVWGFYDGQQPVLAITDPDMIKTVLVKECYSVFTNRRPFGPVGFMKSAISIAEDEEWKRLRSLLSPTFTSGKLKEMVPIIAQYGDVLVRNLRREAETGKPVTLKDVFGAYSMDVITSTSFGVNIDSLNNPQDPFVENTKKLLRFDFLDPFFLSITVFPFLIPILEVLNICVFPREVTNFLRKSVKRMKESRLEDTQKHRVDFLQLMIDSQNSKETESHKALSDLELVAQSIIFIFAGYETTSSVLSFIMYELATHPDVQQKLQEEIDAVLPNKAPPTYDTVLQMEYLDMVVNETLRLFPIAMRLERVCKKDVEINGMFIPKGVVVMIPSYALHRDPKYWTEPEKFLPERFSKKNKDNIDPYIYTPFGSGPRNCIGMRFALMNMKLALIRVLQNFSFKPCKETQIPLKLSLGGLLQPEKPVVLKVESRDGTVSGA

[12] = target: T4, Tyrosine-protein kinase JAK1 (Homo sapiens, UniProt P23458); test: Inhibition of human JAK1 (866 to end residues) GEEPLYWSFPAKK as substrate after 40 mins in presence of [gamma33P]-ATP by scintillation counting based radiometric assay
T4 sequence (P23458 whole entry): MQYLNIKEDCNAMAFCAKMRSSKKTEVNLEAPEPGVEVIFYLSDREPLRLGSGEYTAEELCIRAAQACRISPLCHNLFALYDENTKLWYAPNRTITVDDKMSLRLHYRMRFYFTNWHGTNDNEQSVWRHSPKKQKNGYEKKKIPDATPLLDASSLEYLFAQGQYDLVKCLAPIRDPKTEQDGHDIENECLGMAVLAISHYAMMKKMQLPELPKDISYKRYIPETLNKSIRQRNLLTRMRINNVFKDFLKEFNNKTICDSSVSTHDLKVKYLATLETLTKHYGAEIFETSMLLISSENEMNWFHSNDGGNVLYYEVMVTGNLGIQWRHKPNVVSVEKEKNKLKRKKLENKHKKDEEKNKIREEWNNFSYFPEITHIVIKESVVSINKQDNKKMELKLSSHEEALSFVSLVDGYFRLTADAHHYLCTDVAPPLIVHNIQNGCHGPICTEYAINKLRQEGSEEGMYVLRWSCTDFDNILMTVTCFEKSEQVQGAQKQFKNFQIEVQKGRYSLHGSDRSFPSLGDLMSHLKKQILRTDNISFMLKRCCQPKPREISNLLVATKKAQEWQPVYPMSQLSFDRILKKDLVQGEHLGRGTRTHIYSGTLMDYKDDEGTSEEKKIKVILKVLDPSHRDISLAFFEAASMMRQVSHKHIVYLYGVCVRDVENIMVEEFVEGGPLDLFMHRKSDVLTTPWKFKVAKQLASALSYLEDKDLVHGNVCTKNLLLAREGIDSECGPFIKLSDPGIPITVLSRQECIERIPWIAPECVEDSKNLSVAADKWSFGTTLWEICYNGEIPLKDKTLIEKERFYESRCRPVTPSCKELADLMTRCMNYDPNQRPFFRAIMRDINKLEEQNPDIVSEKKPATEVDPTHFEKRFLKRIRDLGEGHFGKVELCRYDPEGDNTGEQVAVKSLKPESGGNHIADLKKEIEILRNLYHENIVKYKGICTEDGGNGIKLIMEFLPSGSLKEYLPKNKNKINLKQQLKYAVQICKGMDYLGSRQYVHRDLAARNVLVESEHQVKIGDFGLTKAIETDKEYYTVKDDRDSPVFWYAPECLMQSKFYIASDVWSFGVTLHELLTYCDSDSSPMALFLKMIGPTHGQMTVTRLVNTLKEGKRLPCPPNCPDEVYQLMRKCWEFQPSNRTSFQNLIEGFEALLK

[13] = target: T4, Tyrosine-protein kinase JAK1; test: Inhibition of human JAK1 (866 to end residues) assessed as residual activity at 100 nM using GEEPLYWSFPAKK as substrate after 40 mins in presence of [gamma33P]-ATP by scintillation counting based radiometric assay relative to control
[14] = target: T5, Receptor-type tyrosine-protein kinase FLT3 (Homo sapiens, UniProt P36888); test: Inhibition of human FLT3 (564 to end residues) using EAIYAAPFAKKK as substrate after 40 mins in presence of [gamma33P]-ATP by scintillation counting based radiometric assay
T5 sequence (P36888 whole entry): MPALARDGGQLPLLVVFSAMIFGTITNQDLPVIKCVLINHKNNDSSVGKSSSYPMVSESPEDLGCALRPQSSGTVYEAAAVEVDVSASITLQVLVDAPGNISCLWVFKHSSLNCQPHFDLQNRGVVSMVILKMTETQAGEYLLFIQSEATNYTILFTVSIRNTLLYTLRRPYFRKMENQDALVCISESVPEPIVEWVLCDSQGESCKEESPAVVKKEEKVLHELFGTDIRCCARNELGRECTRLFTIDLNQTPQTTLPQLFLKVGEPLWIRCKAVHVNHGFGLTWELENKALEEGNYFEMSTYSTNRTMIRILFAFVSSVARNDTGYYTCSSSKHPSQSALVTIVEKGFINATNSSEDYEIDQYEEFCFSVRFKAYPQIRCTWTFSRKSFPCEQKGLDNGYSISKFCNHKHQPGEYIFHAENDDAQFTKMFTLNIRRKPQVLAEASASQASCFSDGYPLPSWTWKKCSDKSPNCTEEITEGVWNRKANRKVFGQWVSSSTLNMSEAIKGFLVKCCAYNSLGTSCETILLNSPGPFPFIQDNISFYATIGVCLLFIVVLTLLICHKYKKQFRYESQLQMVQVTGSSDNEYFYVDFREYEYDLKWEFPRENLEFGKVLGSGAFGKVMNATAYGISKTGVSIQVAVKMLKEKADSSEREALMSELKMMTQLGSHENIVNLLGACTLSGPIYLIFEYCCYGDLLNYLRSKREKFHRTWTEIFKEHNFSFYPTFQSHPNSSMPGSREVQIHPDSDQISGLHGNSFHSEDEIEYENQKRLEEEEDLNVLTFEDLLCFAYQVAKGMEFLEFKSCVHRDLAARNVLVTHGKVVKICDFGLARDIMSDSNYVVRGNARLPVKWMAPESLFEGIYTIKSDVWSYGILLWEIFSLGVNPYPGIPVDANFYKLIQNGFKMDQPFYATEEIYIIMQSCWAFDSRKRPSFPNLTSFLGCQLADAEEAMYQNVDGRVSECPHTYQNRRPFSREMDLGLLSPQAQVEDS

[15] = Cmax in Sprague-Dawley rat at 5 mg/kg, po measured up to 24 hrs by LC/MS/MS analysis; type: ADME, organism-based; parameters: dose 5 mg/kg, route oral; settings: in vivo
SET-2 = test: Antiproliferative activity against human SET2 cells overexpressing JAK2 […] mutant assessed as reduction in cell growth after 72 hrs by MTT assay; type: functional, cell-based; settings: SET-2, 72 h
[16] = Anti-myelofibrosis activity against mouse BAF3(transformed) cells harboring with JAK2 V617F mutant allografted in NOD/SCID mouse assessed as reduction in liver weight at 60 mg/kg, po qd for 20 days measured on day 25 relative to control; type: functional
[17] = Anti-myelofibrosis activity against mouse BAF3(transformed) cells harboring with JAK2 V617F mutant allografted in NOD/SCID mouse assessed as reduction in spleen weight at 60 mg/kg, po qd for 20 days measured on day 25 relative to control; type: functional

SMILES	Ratio IC50 (Homo sapiens [1])	IC50 (MV4-11) [nM]	Activity [2] [%]	bioavailability [3] [%]	half-life [4] [h]	AUC(0-t) at 24 h [5] [ng·h/mL]	IC50 [6] [nM]	Tmax ([7]; Sprague-Dawley, read-out: Tmax) [h]	IC50 (MOLM-13) [nM]	Activity [8] [%]	IC50 [9] [nM]	Ratio IC50 (Homo sapiens [10])	Activity [11] [%]	IC50 (Cytochrome P450 3A4) [nM]	IC50 [12] [nM]	Activity [13] [%]	IC50 [14] [nM]	Cmax ([15]; Sprague-Dawley, read-out: Cmax) [ng/mL]	further results
CCCCN(C)C1CCN(c2ccc(Nc3ncc(C)c(-c4cnn(C(C)C)c4)n3)cc2F)CC1	19	6.4	7	31	5.9	305	39	2.3	24	4	2	38	33	> 100000	76	27	15	56.5	
Cc1cnc(Nc2ccc(N3CCC(N(C)CCCO)CC3)c(F)c2)nc1-c1cnn(C(C)C)c1	23	8.3	7	43	7.8	1510	23	4.1	82	5	1	47	31	> 100000	47	22	9	88.9	
Cc1cnc(Nc2ccc(N3CCC(N(C)CCN4CCN(C)CC4)CC3)c(F)c2)nc1-c1cnn(C(C)C)c1	34	4.3	5	45			103		50	5	3	40	44	> 100000	121	24	11		beta t1/2 ([4]; 24 h): 16 h; AUCt ([5]; 24 h): 2265 ng·h/mL; Tmax ([7]; 24 h): 2.1 h; Cmax ([15]; 24 h): 2.3 ng/mL
C1=N/C2=N/c3ccc(OCCN4CCCC4)c(c3)COC/C=C/COCc3cccc(c3)C(=C1)N2 [PACRITINIB]																			IC50 (SET-2): 916 nM
Cc1cnc(Nc2ccc(OCCN3CCCC3)cc2)nc1Nc1cccc(S(=O)(=O)NC(C)(C)C)c1 [FEDRATINIB]																			inhibition in vivo at 60 mg/kg [16]: 69.8%; inhibition in vivo at 60 mg/kg [17]: 24.7%
